The test system of experiment [1] is Dollar spot (Sclerotinia homoeocarpa). Briefly: Dollar spot on creeping bentgrass fairways, field plots (% damage). The following applies: Plot 2, Metconazole 0.14 oz ai/1000 sq ft. Format: in vivo. The source says:
(§1) In order to determine the efficacy of combinations of metconazole and Myrothecium verucaria fermentation solids and solubles, numerous treatments were applied to plots in an area of turf grass. Specifically, the plots had established creeping bentgrass growing. No weed infestation was observed. Each plot was 30 square feet and the treatments were done in four replications. A randomized control was included in each block. The plots were no-till golf fairways. The treatments were applied during times of heat stress and also during times when no heat stress was present. The treatment solutions were prepared by pouring the liquid and dispersible granules in water and mixing. Treatments were applied to the turf grass at a volume of 2 gallons (256 liquid ounces)/1000 ft^2 with a CO2 backpack sprayer at 34 psi with a ground speed of 1 mph. The plots received six applications on 22 May, 6 June, 19 June, 4 July, 17 July, and 14 August. The turf grass was evaluated approximately every 7 days. Effect of Metconazole and Myrothecium verucaria fermentation solids and solubles on Dollar Spot on Creeping Bentgrass Fairways (% Damage)” and “Table 2. Effect of Metconazole and Myrothecium verucaria fermentation solids and solubles on Dollar Spot on Creeping Bentgrass Fairways (Quality Rating Based on a Scale of 1-9)”.

Experiment [2] has as its system creeping bentgrass. Nature of the experiment: Turf quality rating of creeping bentgrass fairways with dollar spot, field plots (scale 1-9). To be noted: Plot 2, Metconazole 0.14 oz ai/1000 sq ft. Format: in vivo, creeping bentgrass (Agrostis stolonifera).
Description: as §1

For the compound `CC1(C)CCC(Cc2ccc(Cl)cc2)C1(O)Cn1cncn1` (centres unmarked) [Metconazole, 5-[(4-chlorophenyl)methyl]-2,2-dimetyl-1-(1 H-1,2,4-triazol-1-ylmethyl)cyclopentanol], the “Dollar Spot % Damage” value is on record as 16.3% in experiment [1] (3 July); 8.8% in experiment [1] (6 June); 36.3% in experiment [1] (7 Aug); 32.5% in experiment [1] (10 July); 55.0% in experiment [1] (14 Aug); 7.5% in experiment [1] (15 June). Besides, the “Dollar Spot % Damage” value turned out to be 36.3% in experiment [1] (17 July); 37.5% in experiment [1] (21 Aug); 10.0% in experiment [1] (22 June); 24.3% in experiment [1] (25 July); 11.3% in experiment [1] (26 June); 31.3% in experiment [1] (31 July). Besides, the “Quality Rating Based on a Scale of 1-9” value in experiment [2] (3 July) is on record as 4.5; in experiment [2] (7 Aug), 4.8; in experiment [2] (10 July) it was 3.8; in experiment [2] (14 Aug) it was 4.0; in experiment [2] (15 June), 6.0; in experiment [2] (17 July), 3.5. The “Quality Rating Based on a Scale of 1-9” value was 4.3 in experiment [2] (21 Aug); 5.5 in experiment [2] (22 June); 4.8 in experiment [2] (25 July); 5.5 in experiment [2] (26 June); 4.8 in experiment [2] (31 July).
